Earlier results on two compounds are cited in US11817195B2, “Methods for lowering blood sugar with a gliflozin sodium-glucose cotransport 2 inhibitor pharmaceutical composition” (AstraZeneca UK Limited, priority 2018, dated 2023).

The conditions of data set [1]: at least 14 double-blind, placebo-controlled, randomized studies.

`CCOc1ccc(Cc2cc([C@@H]3O[C@H](CO)[C@@H](O)[C@H](O)[C@H]3O)ccc2Cl)cc1` [dapagliflozin, (2S,3R,4R,5S,6R)-2-[4-chloro-3-[(4-ethoxyphenyl)methyl]phenyl]-6-(hydroxymethyl)oxane-3,4,5-triol]: the “efficacy to lower blood sugar” value in data set [1] is reported as “demonstrated”. The risk of hyperkalemia entry (administration of the drug) is listed as “not correlated with an increased risk of hyperkalemia”.

As for `Cc1ccc([C@@H]2O[C@H](CO)[C@@H](O)[C@H](O)[C@H]2O)cc1Cc1ccc(-c2ccc(F)cc2)s1` [canagliflozin, (2S,3R,4R,5S,6R)-2-[3-[[5-(4-fluorophenyl)thiophen-2-yl]methyl]-4-methylphenyl]-6-(hydroxymethyl)oxane-3,4,5-triol], the incidence of hyperkalemia result (patients with moderate renal impairment, Mikhail, Curr. Drug Safety 9:127-132 (2014)) is listed as “higher incidence of hyperkalemia”.
